Reference: patent US20240384350A1, “METHODS OF TREATING CANCER WITH KINASE INHIBITORS” (BOARD OF REGENTS, THE UNIVERSITY OF TEXAS SYSTEM, priority 2021, published 2024)

Key:
Experiment in all cases: Ba/F3 drug screening, Cell Titer Glo, IC50 Mut/WT
Assay type in all cases: cell-based
EGFR E709K L858R = target: T1, EGFR E709K L858R (Homo sapiens, UniProt P00533, E709K/L858R); conditions: Classical-Like, 72 hours
T1 construct: expressed in transfected cells; host or cells: Ba/F3 cells, retroviral pBabe-Puro vector

EGFR S784F = target: T2, EGFR S784F (Homo sapiens, UniProt P00533, S784F); conditions: Classical-Like, 72 hours
T2 construct: expressed in transfected cells; host or cells: Ba/F3 cells, retroviral pBabe-Puro vector (vector made by GeneScript from EGFR WT)

EGFR L858R/V834L = target: T3, EGFR L858R/V834L (Homo sapiens, UniProt P00533, L858R/V834L); conditions: Classical-Like, 72 hours
T3 construct: expressed in transfected cells; host or cells: Ba/F3 cells, retroviral pBabe-Puro vector

EGFR S720P = target: T4, EGFR S720P (Homo sapiens, UniProt P00533, S720P); conditions: Classical-Like, 72 hours
T4 construct: expressed in transfected cells; host or cells: Ba/F3 cells, retroviral pBabe-Puro vector (vector made by GeneScript from EGFR WT)

EGFR L861Q = target: T5, EGFR L861Q (Homo sapiens, UniProt P00533, L861Q); conditions: Classical-Like, 72 hours
T5 construct: expressed in transfected cells; host or cells: Ba/F3 cells, retroviral pBabe-Puro vector

EGFR N771dupN G724S = target: T6, EGFR N771dupN G724S (Homo sapiens, UniProt P00533, DUP771-771/G724S); conditions: Ex20, 72 hours
T6 construct: expressed in transfected cells; host or cells: Ba/F3 cells, retroviral pBabe-Puro vector (vector made by GeneScript from EGFR G724S, c.2313_2314insAAC)

[1] = target: T7, EGFR L747_K754del insATSPE (Homo sapiens, UniProt P00533, DEL747-749/K754E); conditions: T790M-like-3S, 72 hours
T7 construct: expressed in transfected cells; host or cells: Ba/F3 cells, retroviral pBabe-Puro vector

EGFR Ex19del/T790M/G724S = target: T8, EGFR Ex19del/T790M/G724S (Homo sapiens, UniProt P00533, DEL746-750/G724S/T790M); conditions: T790M-like-3S, 72 hours
T8 construct: expressed in transfected cells; host or cells: Ba/F3

EGFR L858R T790M L792H = target: T9, EGFR L858R T790M L792H (Homo sapiens, UniProt P00533, L792H/L858R/T790M); conditions: T790M-like-3S, 72 hours
T9 construct: expressed in transfected cells; host or cells: Ba/F3

EGFR E709K G719S = target: T10, EGFR E709K G719S (Homo sapiens, UniProt P00533, E709K/G719S); conditions: PACC; E709K G719S; Ba/F3; 72 hours
T10 construct: expressed in transfected cells; host or cells: Ba/F3

EGFR L718V = target: T11, EGFR L718V (Homo sapiens, UniProt P00533, L718V); conditions: PACC; L718V; Ba/F3; 72 hours
T11 construct: expressed in transfected cells; host or cells: Ba/F3

EGFR G719S = target: T12, EGFR G719S (Homo sapiens, UniProt P00533, G719S); conditions: PACC; G719S; Ba/F3; 72 hours
T12 construct: expressed in transfected cells; host or cells: Ba/F3

EGFR G719A/R776C = target: T13, EGFR G719A/R776C (Homo sapiens, UniProt P00533, G719A/R776C); conditions: PACC; G719A/R776C; Ba/F3; 72 hours
T13 construct: expressed in transfected cells; host or cells: Ba/F3

EGFR L747S = target: T14, EGFR L747S (Homo sapiens, UniProt P00533, L747S); conditions: PACC; L747S; Ba/F3; 72 hours
T14 construct: expressed in transfected cells; host or cells: Ba/F3

EGFR K757R = target: T15, EGFR K757R (Homo sapiens, UniProt P00533, K757R); conditions: PACC; K757R; Ba/F3; 72 hours
T15 construct: expressed in transfected cells; host or cells: Ba/F3

EGFR S768I = target: T16, EGFR S768I (Homo sapiens, UniProt P00533, S768I); conditions: PACC; S768I; Ba/F3; 72 hours
T16 construct: expressed in transfected cells; host or cells: Ba/F3

EGFR S768I/V769L = target: T17, EGFR S768I/V769L (Homo sapiens, UniProt P00533, S768I/V769L); conditions: PACC; S768I/V769L; Ba/F3; 72 hours
T17 construct: host or cells: Ba/F3

EGFR L858R/L718V = target: T18, EGFR L858R/L718V (Homo sapiens, UniProt P00533, L718V/L858R); conditions: PACC; L858R/L718V; Ba/F3; 72 hours
T18 construct: host or cells: Ba/F3

EGFR L858R/L792H = target: T19, EGFR L858R/L792H (Homo sapiens, UniProt P00533, L792H/L858R); conditions: PACC; L858R/L792H; Ba/F3; 72 hours
T19 construct: expressed in transfected cells; host or cells: Ba/F3

EGFR L858R/C797S = target: T20, EGFR L858R/C797S (Homo sapiens, UniProt P00533, C797S/L858R); conditions: PACC; L858R/C797S; Ba/F3; 72 hours
T20 construct: expressed in transfected cells; host or cells: Ba/F3

EGFR Ex19del/C797S = target: T21, EGFR Ex19del/C797S (Homo sapiens, UniProt P00533, C797S/DEL746-750); conditions: PACC; Ex19del/C797S; Ba/F3; 72 hours
T21 construct: expressed in transfected cells; host or cells: Ba/F3

EGFR Ex19del L718Q = target: T22, EGFR Ex19del L718Q (Homo sapiens, UniProt P00533, DEL746-750/L718Q); conditions: PACC; Ex19del L718Q; Ba/F3; 72 hours
T22 construct: expressed in transfected cells; host or cells: Ba/F3

With `CNC(=O)CN1CCC(Oc2cc3c(Nc4cccc(Cl)c4F)ncnc3cc2OC)CC1` [Sapatinib] the “ratio of IC50 for cells with mutant EGFR to IC50 for cells with wildtype EGFR (Mut/WT)” value (“ratio of IC50 for cells with mutant EGFR” for short) (EGFR E709K L858R) was 0.02084, the “ratio of IC50 for cells with mutant EGFR” value (EGFR S784F) was 0.08508 and the “ratio of IC50 for cells with mutant EGFR” value (EGFR L858R/V834L) was 0.001889. The “ratio of IC50 for cells with mutant EGFR” value (EGFR S720P) was 0.004664, the “ratio of IC50 for cells with mutant EGFR” value (EGFR L861Q) was 0.01265 and the “ratio of IC50 for cells with mutant EGFR” value (EGFR N771dupN G724S) was 1.103. For the same compound, the “ratio of IC50 for cells with mutant EGFR” value [1] was 7.978, the “ratio of IC50 for cells with mutant EGFR” value (EGFR Ex19del/T790M/G724S) was 26.15 and the “ratio of IC50 for cells with mutant EGFR” value (EGFR L858R T790M L792H) was 54.78. The “ratio of IC50 for cells with mutant EGFR” value (EGFR E709K G719S) was 0.01102, the “ratio of IC50 for cells with mutant EGFR” value (EGFR L718V) was 1.264 and the “ratio of IC50 for cells with mutant EGFR” value (EGFR G719S) was 0.1998. For the same compound, the “ratio of IC50 for cells with mutant EGFR” value (EGFR G719A/R776C) was 0.0489, the “ratio of IC50 for cells with mutant EGFR” value (EGFR L747S) was 0.005189 and the “ratio of IC50 for cells with mutant EGFR” value (EGFR K757R) was 0.3144. For the same compound, the “ratio of IC50 for cells with mutant EGFR” value (EGFR S768I) was 0.1883, the “ratio of IC50 for cells with mutant EGFR” value (EGFR S768I/V769L) was 0.2596 and the “ratio of IC50 for cells with mutant EGFR” value (EGFR L858R/L718V) was 0.05575. The “ratio of IC50 for cells with mutant EGFR” value (EGFR L858R/L792H) was 0.01237, the “ratio of IC50 for cells with mutant EGFR” value (EGFR L858R/C797S) was 0.001101 and the “ratio of IC50 for cells with mutant EGFR” value (EGFR Ex19del/C797S) was 0.0006085. The “ratio of IC50 for cells with mutant EGFR” value (EGFR Ex19del L718Q) was 0.7162.
